Here are results for eleven compounds from paper PMC7224104 (Molecular Diversity, 2020).

The target of this assay is T1, porcine liver COMT (Sus scrofa, UniProt Q99028).
T1 sequence (Q99028 1-186): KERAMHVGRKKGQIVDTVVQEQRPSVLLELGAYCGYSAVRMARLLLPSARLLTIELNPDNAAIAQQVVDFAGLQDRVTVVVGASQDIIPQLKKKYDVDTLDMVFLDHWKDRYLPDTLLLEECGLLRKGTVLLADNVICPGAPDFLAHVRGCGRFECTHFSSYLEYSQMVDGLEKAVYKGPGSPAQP
The experiment in a line: biochemical.
`Cc1c(O)c(=O)ccn1Cc1ccccc1` [Compound 2, 1-Benzyl-3-hydroxy-2-methylpyridin-4-one]: the IC50 amounted to 4.55 ± 0.545 µM.
For `Cc1c(O)c(=O)ccn1-c1ccc(Cl)cc1` [Compound 9, 1-(4-Chlorophenyl)-3-hydroxy-2-methylpyridin-4-one] the value was 9.31 ± 2.94 µM; for `Cc1ccc(C(=O)c2cc(O)c(O)c([N+](=O)[O-])c2)cc1` [Tolcapone, reference compound], 0.0068 µM.
For `Cc1ccc(Cn2ccc(=O)c(O)c2C)cc1` [Compound 10, 3-Hydroxy-2-methyl-1-(4-methylbenzyl)pyridin-4-one], the midpoint of inhibition, the IC50, lay at 5.76 ± 0.664 µM.
The compound `Cc1c(O)c(=O)ccn1CCCc1ccccc1` [Compound 4, 3-Hydroxy-2-methyl-1-(3-phenylpropyl)pyridin-4-one] returned a half-inhibitory concentration (IC50) of 18.4 ± 0.974 µM.
Take `Cc1c(O)c(=O)ccn1-c1ccccc1` [Compound 1, 3-Hydroxy-2-methyl-1-phenylpyridin-4-one]: the IC50 worked out at 10.9 ± 1.06 µM.
With `Cc1c(O)c(=O)ccn1C1CCCC1` [Compound 7, 1-Cyclopentyl-3-hydroxy-2-methylpyridin-4-one], it took 19.8 ± 5.86 µM to reach half-maximal inhibition (IC50).
Take `Cc1c(O)c(=O)ccn1CCCCc1ccccc1` [Compound 5, 3-Hydroxy-2-methyl-1-(4-phenylbutyl)pyridin-4-one]: 9.05 ± 1.25 µM corresponded to half-maximal inhibition (IC50).
For `Cc1c(O)c(=O)ccn1C1CCCCC1` [Compound 6, 1-Cyclohexyl-3-hydroxy-2-methylpyridin-4-one] the value was 12.2 ± 3.06 µM.
In turn, `Cc1c(O)c(=O)ccn1CCc1ccccc1` [Compound 3, 3-Hydroxy-2-methyl-1-(2-phenylethyl)pyridin-4-one] came in with a concentration for half-maximal inhibition (IC50) of 15 ± 2.1 µM.
`Cc1c(O)c(=O)ccn1-c1cccc(Cl)c1` [Compound 8, 1-(3-Chlorophenyl)-3-hydroxy-2-methylpyridin-4-one]: it took 11.2 ± 1.01 µM to reach half-maximal inhibition (IC50).

In general, IC50 refers to the concentration that gives 50% inhibition. High values mean weaker potency, low ones greater potency.
